Reference: patent US5166163A, “3-(1H-indazol-3-yl)-4-pyridinamines” (Hoechst-Roussel Pharmaceuticals Incorporated, priority 1991, dated 1992)
Where a name gives a salt, the structure may show the parent alone.

Legend:
[1] = system: phenyl-para-quinone writhing; assay: phenyl-para-quinone writhing assay in mice (analgesia); assay type: in vivo; details: s.c.
From the text: The compounds of the present invention are useful as analgesic agents. […] Exptl. Biol. Med., 95,729 (1957)].

[2] = system: ear edema induced by topical application of TPA (phorbol 12-myristate acetate); assay: TPA-Induced Ear Edema (TPAEE); assay type: in vivo, Female Swiss Webster mice; details: mice
Description: The purpose of this assay was to determine the ability of a topically-applied compound to prevent ear edema induced by topical application of TPA (phorbol 12-myristate acetate). Female Swiss Webster mice topically received TPA (10 μg/ear) on the right ear and vehicle on the left ear. The test compound (10 μg/ear) was applied to both ears. After five hours, the animals were sacrificed and an ear punch (4 mm) was taken from each ear. The difference in right and left ear punch weights for each animal was determined to assess activity. […] See Young, J. M. et al., J. Invest. Dermatol., 80 (1983), pp. 48-52.

For `NN=C(c1cnccc1N)c1ccccc1F` [(4-Amino-3-pyridinyl)-2-fluorophenylmethanone hydrazone dihydrochloride], the “% Inhibition of Writhing” value ([1]; 20 mg/kg of body wt.) was 74%.

For `CC(C)(C)C(=O)Nc1ccncc1-c1n[nH]c2ccccc12` [N-[3-(1H-Indazol-3-yl)-4-pyridinyl]-2,2-dimethylpropanamide], the “TPAEE (difference in right and left ear punch weights)” value ([2]; 10 μg/ear, both ears, five hours, TPA 10 μg/ear on right ear) was -31%.

Work on `C[C@]12CCC(=O)C=C1CC[C@@H]1[C@@H]2[C@@H](O)C[C@@]2(C)[C@H]1CC[C@]2(O)C(=O)CO` [hydrocortisone, reference compound] yielded an ED50 ([2]; standard, TPA-induced ear edema) of 47 μg/ear.

`CC(C)(C)C(=O)Nc1ccncc1C(=NN)c1ccccc1F` [[4-(2,2-Dimethylpropionamido)-3-pyridinyl]-2-fluorophenylmethanonehydrazonemaleate] was tested, and the “% Inhibition of Writhing” value ([1]; 20 mg/kg of body wt.) was 60%.

In the case of `CCC(=O)O[C@](Cc1ccccc1)(c1ccccc1)[C@H](C)CN(C)C` [Propoxyphene, reference compound], the “% Inhibition of Writhing” value ([1]; 3.9 mg/kg of body wt., standard) is reported as 50%.
